# Patent US8598234B2, “Compositions of dibromomalonamide and their use as biocides” (Dow Global Technologies LLC, priority 2009, dated 2013)
# Like-named read-outs stand apart in the source and are kept apart here.
# System: mixture of Pseudomonas aeruginosa, Klebsiella pneumoniae, Staphylococcus aureus, and Bacillus subtilis
# Experiment: Growth inhibition assay (microtiter plate-based synergy assay)
# Assay type: cell-based
# Conditions: 24 h; for concentration needed to prevent at least 90% of the growth (I90) of the microbial consortium: active used alone
# Source text: Details of each assay are provided below.
# Growth Inhibition Assay. […] Regardless of the mechanism of action, the impact of a biocide (or combination of biocides) can be measured over time on the basis of an increase in the size of the community.
# The assay measures the efficacy of one or more biocides at preventing growth of a consortium of bacteria in a dilute mineral salts medium. The medium contains (in mg/l) the following components: FeCl3.6H2O (1); CaCl2.2H2O (10); MgSO4.7H2O (22.5); (NH4)2SO4 (40); KH2PO4 (10); K2HPO4 (25.5); Yeast Extract (10); and glucose (100). After all components are added to deionized water, the pH of the medium is adjusted to 7.5. Following filter sterilization, aliquots are dispensed in 100 ul quantities to sterile microtiter plate wells. Dilutions of 2,2-dibromomalonamide (“DBMAL”) and/or “Biocide B” are then added to the microtiter plate. After preparing the combinations of actives as illustrated below, each well is inoculated with 100 μl of a cell suspension containing ca. 1×10^6 cells per milliliter of a mixture of Pseudomonas aeruginosa, Klebsiella pneumoniae, Staphylococcus aureus, and Bacillus subtilis. The final total volume of medium in each well is 300 μl. Once prepared as described herein, the concentration of each active ranges from 25 ppm to 0.195 ppm as illustrated in Table 1. The resulting matrix allows testing of eight concentrations of each active and 64 combinations of actives in the ratios (of actives).
# Controls (not shown) contain the medium with no biocide added. After preparing the combinations of actives as illustrated above, each well is inoculated with 100 μl of a cell suspension containing ca. 1×10^6 cells per milliliter of a mixture of Pseudomonas aeruginosa, Klebsiella pneumoniae, Staphylococcus aureus, and Bacillus subtilis. The final total volume of medium in each well is 300 μl.
# Immediately after the microtiter plates are prepared, the optical density (OD) readings for each well is measured at 580 nm and the plates are then incubated at 37° C. for 24 hr. After the incubation period, the plates are gently agitated before OD580 values are collected. The OD580 values at T0 are subtracted from T24 values to determine the total amount of growth (or lack thereof) that occurs. These values are used to calculate the percent inhibition of growth caused by the presence of each biocide and each of the 64 combinations.
# where • CDBMAL: Concentration of DBMAL required to inhibit ˜90% of bacterial growth when used alone • CB: Concentration of biocide (B) required to inhibit ˜90% of bacterial growth when used alone.
# MDBMAL: Concentration of DBMAL required to inhibit ˜90% of bacterial growth when used in combination with biocide (B).
# MB: Concentration of biocide (B) required to inhibit ˜90% of bacterial growth when used in combination with DBMAL
# The SI values are interpreted as follows:
# • SI<1: Synergistic combination • SI=1: Additive combination • SI>1: Antagonistic combination
# In the Examples below, the amounts of biocides in the solution are measured in mg per liter of solution (mg/l). Since solution densities are approximately 1.00, the mg/l measurement corresponds to weight ppm. Both units may therefore be used interchangeably in the Examples.
# [1] = read-out: % Inhibition of growth by SOPP
SMILES,"inhibition at […] (DBMAL alone 0.19 mg/l, OD580) [%]","inhibition at 0.39 µg/mL (DBMAL alone 0.39 mg/l, OD580) [%]","inhibition at 0.78 µg/mL (DBMAL alone 0.78 mg/l, OD580, read-out: % Inhibition of growth by DBMAL) [%]","inhibition at 1.56 µg/mL (DBMAL alone 1.56 mg/l, OD580, read-out: % Inhibition of growth by DBMAL) [%]","inhibition at 3.13 µg/mL (DBMAL alone 3.13 mg/l, OD580, read-out: % Inhibition of growth by DBMAL) [%]","inhibition at 6.25 µg/mL (DBMAL alone 6.25 mg/l, OD580, read-out: % Inhibition of growth by DBMAL) [%]","inhibition at 12.5 µg/mL (DBMAL alone 12.5 mg/l, OD580, read-out: % Inhibition of growth by DBMAL) [%]","inhibition at 25 µg/mL (DBMAL alone 25.0 mg/l, OD580, read-out: % Inhibition of growth by DBMAL) [%]",concentration needed to prevent at least 90% of the growth (I90) of the microbial consortium [mg/L],inhibition at 0.78 µg/mL [1] [%],inhibition at 1.56 µg/mL [1] [%],inhibition at 3.13 µg/mL [1] [%],inhibition at 6.25 µg/mL [1] [%],inhibition at 12.5 µg/mL [1] [%],inhibition at 25 µg/mL [1] [%],inhibition at 50 µg/mL [1] [%]
"NC(=O)C(Br)(Br)C(N)=O [DBMAL, 2,2-dibromomalonamide]",0,4,7,0,0,49,100,100,12.5,,,,,,,
"Oc1ccccc1-c1ccccc1.[Na] [SOPP, sodium ortho-phenylphenol]",,,,,,,,,500,0,17,0,37,68,98,98
